Reference: PubChem BioAssay (NCI)
“And” between values parts separate entries of the source, which are not always exact repeats. Identical values can stand only once.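 Step 1: Grow cells in 96-well plates. Step 2: Expose to compound for 48 hours at 5 concentrations. Step 3: Interpolate endpoints linearly; if unreached, use highest concentration. GI50 is the concentration that inhibits growth by half. TGI: total growth inhibition.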

Key:
Test in all cases: NCI tumour cell line growth inhibition, 48 h
HCC-2998 colon = test system: HCC-2998 colon
SK-MEL-5 melanoma = test system: SK-MEL-5 melanoma
NCI-H460 lung = test system: NCI-H460 lung
SK-OV-3 ovarian = test system: SK-OV-3 ovarian
OVCAR-3 ovarian = test system: OVCAR-3 ovarian
MCF7 breast = test system: MCF7 breast
HT29 colon = test system: HT29 colon
KM12 colon = test system: KM12 colon
786-0 renal = test system: 786-0 renal

Compound: CCOC(=O)c1c2c(c(O)c3ccccc3c(O)n(Cc3ccc(OC)cc3)c1C)C(=O)C=CC2=O
- GI50 (HCC-2998 colon): > 100 µM
- TGI (HCC-2998 colon): > 100 µM
- GI50 (SK-MEL-5 melanoma): > 100 µM
- TGI (SK-MEL-5 melanoma): > 100 µM
- GI50 (NCI-H460 lung): > 100 µM
- TGI (NCI-H460 lung): > 100 µM
- GI50 (SK-OV-3 ovarian): > 100 µM
- TGI (SK-OV-3 ovarian): > 100 µM
- GI50 (OVCAR-3 ovarian): 68.9 µM
- TGI (OVCAR-3 ovarian): > 100 µM
- GI50 (MCF7 breast): > 100 µM
- TGI (MCF7 breast): > 100 µM
- GI50 (HT29 colon): > 100 µM
- TGI (HT29 colon): > 100 µM
- GI50 (KM12 colon): > 100 µM
- TGI (KM12 colon): > 100 µM
- GI50 (786-0 renal): > 100 µM
- TGI (786-0 renal): > 100 µM

Compound: CCSCC1CC(O)(c2ccccc2)C(c2ccccc2)C(c2ccc(Cl)cc2)O1 (stereo not drawn)
- GI50 (HCC-2998 colon): 1.82 µM
- TGI (HCC-2998 colon): 3.58 µM
- GI50 (SK-MEL-5 melanoma): 1.64 µM
- TGI (SK-MEL-5 melanoma): 3.01 µM
- GI50 (NCI-H460 lung): 1.42 µM
- TGI (NCI-H460 lung): 3.44 µM
- GI50 (SK-OV-3 ovarian): 2.5 µM
- TGI (SK-OV-3 ovarian): 7.33 µM
- GI50 (OVCAR-3 ovarian): 1.74 µM
- TGI (OVCAR-3 ovarian): 4.2 µM
- GI50 (MCF7 breast): 1.85 µM
- TGI (MCF7 breast): 5.35 µM
- GI50 (HT29 colon): 1.09 µM
- TGI (HT29 colon): 3.17 µM
- GI50 (KM12 colon): 2.56 µM
- TGI (KM12 colon): 6.92 µM
- GI50 (786-0 renal): 1.64 µM
- TGI (786-0 renal): 3.26 µM

Compound: Cc1ccc([N+](=O)[O-])cc1NC(=O)Nc1cccc(F)c1
- GI50 (HCC-2998 colon): 4.02 µM
- TGI (HCC-2998 colon): > 100 µM
- GI50 (SK-MEL-5 melanoma): 4.04 µM
- TGI (SK-MEL-5 melanoma): > 100 µM
- GI50 (NCI-H460 lung): 3.09 µM
- TGI (NCI-H460 lung): 16.1 µM
- GI50 (SK-OV-3 ovarian): 13.1 µM
- TGI (SK-OV-3 ovarian): 49.4 µM
- GI50 (OVCAR-3 ovarian): 3.25 µM
- TGI (OVCAR-3 ovarian): 11.7 µM
- GI50 (MCF7 breast): 3.63 µM
- TGI (MCF7 breast): > 100 µM
- GI50 (HT29 colon): 4.35 µM
- TGI (HT29 colon): > 100 µM
- GI50 (KM12 colon): 3.67 µM
- TGI (KM12 colon): 48.7 µM
- GI50 (786-0 renal): 14.1 µM
- TGI (786-0 renal): > 100 µM

Compound: C[C@@H]1COCCN1c1cc(C2([S@](C)(=N)=O)CC2)nc(-c2ccnc3[nH]ccc23)n1
- GI50 (HCC-2998 colon): 2.56 µM and 4.97 µM
- TGI (HCC-2998 colon): > 100 µM
- GI50 (SK-MEL-5 melanoma): 3.6 µM and 3.87 µM
- TGI (SK-MEL-5 melanoma): 15.7 µM and > 10 µM
- GI50 (NCI-H460 lung): 1.04 µM and 2.1 µM
- TGI (NCI-H460 lung): > 100 µM
- GI50 (SK-OV-3 ovarian): 2.7 µM and 4.51 µM
- TGI (SK-OV-3 ovarian): 27.9 µM and > 10 µM
- GI50 (OVCAR-3 ovarian): 4.16 µM and 5.15 µM
- TGI (OVCAR-3 ovarian): > 80.6 µM
- GI50 (MCF7 breast): 0.417 µM and 0.611 µM
- TGI (MCF7 breast): 39 µM and > 10 µM
- GI50 (HT29 colon): 4.27 µM and 4.99 µM
- TGI (HT29 colon): > 100 µM
- GI50 (KM12 colon): 4.21 µM and 3.95 µM
- TGI (KM12 colon): > 100 µM
- GI50 (786-0 renal): 1.39 µM and 2.03 µM
- TGI (786-0 renal): 16.1 µM and > 10 µM

Compound: O=C1c2ccccc2-c2c1c1ccccc1c(=O)n2CCCCNCCCn1c2c(c3ccccc3c1=O)C(=O)c1ccccc1-2
- GI50 (HCC-2998 colon): 0.698 µM
- TGI (HCC-2998 colon): 1.4 µM
- GI50 (SK-MEL-5 melanoma): 0.529 µM
- TGI (SK-MEL-5 melanoma): 1.49 µM
- GI50 (NCI-H460 lung): 0.0484 µM
- TGI (NCI-H460 lung): 0.687 µM
- GI50 (SK-OV-3 ovarian): 5.35 µM
- TGI (SK-OV-3 ovarian): 50 µM
- GI50 (OVCAR-3 ovarian): 0.509 µM
- TGI (OVCAR-3 ovarian): 2.06 µM
- GI50 (MCF7 breast): 0.345 µM
- TGI (MCF7 breast): 6.25 µM
- GI50 (HT29 colon): 0.0929 µM
- TGI (HT29 colon): 8.95 µM
- GI50 (KM12 colon): 0.31 µM
- TGI (KM12 colon): 2.45 µM
- GI50 (786-0 renal): 0.0318 µM
- TGI (786-0 renal): 0.699 µM

Compound: CCCCON(OC(=O)c1ccccc1)C(=O)c1ccccc1
- GI50 (HCC-2998 colon): > 100 µM
- TGI (HCC-2998 colon): > 100 µM
- GI50 (SK-MEL-5 melanoma): > 100 µM
- TGI (SK-MEL-5 melanoma): > 100 µM
- GI50 (NCI-H460 lung): > 100 µM
- TGI (NCI-H460 lung): > 100 µM
- GI50 (SK-OV-3 ovarian): > 100 µM
- TGI (SK-OV-3 ovarian): > 100 µM
- GI50 (OVCAR-3 ovarian): > 100 µM
- TGI (OVCAR-3 ovarian): > 100 µM
- GI50 (MCF7 breast): > 100 µM
- TGI (MCF7 breast): > 100 µM
- GI50 (HT29 colon): > 100 µM
- TGI (HT29 colon): > 100 µM
- GI50 (KM12 colon): > 100 µM
- TGI (KM12 colon): > 100 µM
- GI50 (786-0 renal): > 100 µM
- TGI (786-0 renal): > 100 µM
